Tests used:
[1] = target: T1, human 5-HT2A receptor (Homo sapiens, UniProt P28223); test: Competition radioligand binding at human 5-HT2A receptor ([3H]-Ketanserin); details: mean ± SEM of 2 independent experiments, read-out: hu5-HT2A % inh. at 10 µM
T1 construct: expressed in transfected cells; host or cells: CHO-K1
Experimental: (§1) Competition radioligand binding assays were performed on membranes isolated from cell lines stably expressing the cloned human receptors, which were either in-house or commercially available. […] Assays (250 μL assay final volume) were carried out in 96-well polypropylene plates in duplicate. In short, the suspension of appropriate membrane protein was incubated in an assay buffer with the addition of the corresponding radioligand, in the presence or absence of a tested compound or reference compound. […] After the incubation, the content of the test plates was transferred to 96 well plates with glass fiber filter GF/B or GF/C, previously pretreated with polyethyleneimine (PEI), and rapidly filtered with the use of vacuum, followed by rapid washing with cold (4 °C) wash buffer. After that, the filter plates were dried at 60 °C for 1 h. Then, 30 μL of liquid scintillation cocktail (UniverSol-ES, MP Biomedicals, Solon, OH, USA) was added to each well of the filter plates, and the radioactivity was measured in a MicroBeta^2 microplate scintillation counter (PerkinElmer, Madrid, Spain).
(§2) Competition binding curves were fitted to a one-site competition binding model (Fit Ki) with the use of Prism 7 software (GraphPad, San Diego, CA, USA). logKi (log of the equilibrium dissociation constant (Ki)) values were obtained after constraining the concentration of radioligand employed in the assay and its dissociation constant (KD) as determined in saturation radioligand binding assays.

[2] = target: T2, human D2S receptor (Homo sapiens, UniProt P14416); test: Competition radioligand binding at human D2 receptor ([3H]-Spiperone, CHO-K1 membranes); details: mean ± SEM of 2–3 independent experiments in duplicate; read-out: huD2 Ki
T2 construct: expressed in transfected cells; host or cells: CHO-K1
T2 sequence (P14416 1-414 isoform P14416-2): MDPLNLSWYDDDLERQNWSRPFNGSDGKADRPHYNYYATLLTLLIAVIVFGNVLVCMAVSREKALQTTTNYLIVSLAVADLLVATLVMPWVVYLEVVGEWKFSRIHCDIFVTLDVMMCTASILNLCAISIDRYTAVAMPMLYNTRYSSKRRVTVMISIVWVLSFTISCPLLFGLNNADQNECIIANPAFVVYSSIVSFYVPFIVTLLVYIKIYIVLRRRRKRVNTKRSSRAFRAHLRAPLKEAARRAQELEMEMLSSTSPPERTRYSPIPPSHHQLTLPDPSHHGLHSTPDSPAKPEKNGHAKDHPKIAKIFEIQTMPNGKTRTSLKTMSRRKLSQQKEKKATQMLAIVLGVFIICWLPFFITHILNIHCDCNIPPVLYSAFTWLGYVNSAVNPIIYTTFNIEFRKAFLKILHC
Experimental: Experiments were carried out in membranes isolated from a CHO-K1 cell line stably overexpressing the cloned human D2S receptor.
as §1, §2

[3] = test system: mice; test: Motor coordination, chimney test; format: in vivo; details: 25, 50 and 75 mg/kg i.p., 60 min before testing
Experimental: The experiments were carried out on 6 weeks old naive Swiss male mice (Experimental Medicine Center (OMD), Lublin, Poland), weighing 28–30 g. The cages with mice were located in air-conditioned rooms maintaining the ambient temperature within the range of 23–25 °C. The animals were provided with a natural 12 h day/night cycle, replicating the day and night mode. Each testing group was represented by 8–10 animals, depending on the research schedule. All experiments were conducted according to the National Institute of Health Guidelines for the Care and Use of Laboratory Animals (8th edition) and to the European Community Council Directive for the Care and Use of Laboratory Animals of 22 September 2010 (2010/63/EU) and were approved by the Local Ethical Committee (number of ethical approval: 147/2018). Compound 17 (25, 50, 75 mg/kg) was suspended in 1% Tween 80 in saline solution and was administered intraperitoneally (i.p.) 60 min before the test. […] Imipramine hydrochloride (30 mg/kg, Sigma-Aldrich was administered intraperitoneally (i.p.) 60 min before the test. […] Sigma-Aldrich, USA) was given subcutaneously (s.c.). Prior to administration, the agent was dissolved in saline and injected 30 min before the test. […] Motor coordination has been assessed in mice using the chimney test and the rotarod test, according to the procedure we had used before. […]

[4] = test system: mice; test: Elevated plus-maze (EPM) test; format: in vivo; details: 25, 50 and 75 mg/kg i.p., 60 min before the test
Experimental: The experiments were carried out on 6 weeks old naive Swiss male mice (Experimental Medicine Center (OMD), Lublin, Poland), weighing 28–30 g. The cages with mice were located in air-conditioned rooms maintaining the ambient temperature within the range of 23–25 °C. The animals were provided with a natural 12 h day/night cycle, replicating the day and night mode. Each testing group was represented by 8–10 animals, depending on the research schedule. All experiments were conducted according to the National Institute of Health Guidelines for the Care and Use of Laboratory Animals (8th edition) and to the European Community Council Directive for the Care and Use of Laboratory Animals of 22 September 2010 (2010/63/EU) and were approved by the Local Ethical Committee (number of ethical approval: 147/2018).
Compound 17 (25, 50, 75 mg/kg) was suspended in 1% Tween 80 in saline solution and was administered intraperitoneally (i.p.) 60 min before the test. Diazepam (DZ, Relanium, Polfa, Poland) at a dose of 1 mg/kg was diluted in 0.9% saline containing 1% Tween 80 and was administered subcutaneously (s.c.), 60 min before the test. Imipramine hydrochloride (30 mg/kg, Sigma-Aldrich was administered intraperitoneally (i.p.) 60 min before the test. D-amphetamine sulfate (3 mg/kg; Sigma-Aldrich, USA) was given subcutaneously (s.c.). Prior to administration, the agent was dissolved in saline and injected 30 min before the test. Control animals received an (i.p.) or (s.c.) injection of a respective vehicle. All compounds were injected in a manner generally accepted in experimental pharmacology, in an amount of 10 mL/kg body weight.
The experiment was carried out on mice according to the method of Lister. […] The number of entries into the open arms and the time spent in these arms were scored for a 5-min test period. […] The following measures were obtained from the test: the total number of arm entries, the percentage of entries into the open arms, the time spent in the open arms expressed as a percentage of the time spent in both the open and closed arms. […]

T1 sequence (P28223 whole entry): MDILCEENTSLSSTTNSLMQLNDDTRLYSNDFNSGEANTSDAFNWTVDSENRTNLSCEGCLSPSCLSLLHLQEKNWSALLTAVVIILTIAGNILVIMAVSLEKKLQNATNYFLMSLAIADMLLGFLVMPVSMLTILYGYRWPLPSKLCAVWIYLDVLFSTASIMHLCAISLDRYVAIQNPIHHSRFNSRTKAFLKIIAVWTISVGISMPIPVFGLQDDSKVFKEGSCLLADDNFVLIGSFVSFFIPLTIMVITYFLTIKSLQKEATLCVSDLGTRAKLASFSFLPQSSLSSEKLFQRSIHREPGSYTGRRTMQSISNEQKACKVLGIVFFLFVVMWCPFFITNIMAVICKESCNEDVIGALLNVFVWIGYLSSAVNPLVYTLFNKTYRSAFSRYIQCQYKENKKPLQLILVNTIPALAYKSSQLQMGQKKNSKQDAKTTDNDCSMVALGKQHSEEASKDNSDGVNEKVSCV

Structure (SMILES): O=C(CCN1C(=O)CSc2ccccc21)Nc1ccc(Cl)cc1 [Compound 17, N-(4-Chlorophenyl)-3-(3-oxo-2,3-dihydro-4H-benzo[b][1,4]thiazin-4-yl)propanamide]
- inhibition at 10 µM [1]: 28 ± 1%
- Ki [2]: 0.381 ± 0.048 µM
- effect on behavior in the chimney test [3]: did not change the behavior
- time to leave the chimney [3]: ≤ 30 s
- percentage of entries into open arms [4]: did not change
- percentage of the time spent in open arms [4]: did not change
